Assay results as given in US12275684B2, “Methods for making and using endoxifen” (Atossa Therapeutics, Inc., priority 2017, dated 2025).

How the values were obtained:
[1] = Accelerated stability study of (Z)-endoxifen free base solution in ethanol (E/Z by HPLC); type: physicochemical
Method: HPLC-UV analyses of the samples was carried out using a Luna phenyl-hexyl column (4.6 mm×150 mm×3 μm of particle size). The column temperature was 40° C. and sample compartment temperature was maintained at ambient temperature. Samples were prepared by dissolving solids and filtrates at 0.2 mg/ml of sample in methanol as sample buffer. Samples were then injected into the column in an injection volume of 20 μl. Likewise, mildly acidic (pH 4.3) ammonium formate buffer/methanol in the mobile phase with gradient elution was used. Mobile phase system consisting of: Mobile Phase A (MPA) buffer was 10 mM HCOONH4 with 0.03% HCOOH buffer in water, and Mobile Phase B (MBP) buffer was 10 mM HCOONH4 in methanol with a gradient program used.
The run time was 30 m, the flow rate was 1.0 mL/m, and the delay time was 5 m. Samples were detected by UV detection at 243 nm. Retention times were typically from 12.95 to 13.20 m for (E)-endoxifen and from 14.0 to 14.33 m for (Z)-endoxifen. Relative Retention Time (RRT) for (E)-endoxifen was […] and 1.0 for (Z)-endoxifen.
The stability of (Z)-endoxifen free base Sample 1 of Table 11 was studied when stored at various temperatures in solid form and in ethanol (EtOH) solution. The (E)-endoxifen and (Z)-endoxifen levels were measured on days 2, 7 and 10 following placement of 1 g aliquots of purified (Z)-endoxifen free base in 180 mL HDPE bottles under dry N2, which were then placed in double LDPE bags. The double bagged HDPE bottles containing each sample were individually packed in aluminum foil bags and thermally sealed until they were opened for testing the stability of the samples. The (E)- and (Z)-isomers of endoxifen were monitored by HPLC as disclosed above. The purity of (Z)-endoxifen in solid form remained at about 97% at 40° C., 60° C., and 80° C. up to 10 days.

[2] = Bulk drug stability study of (Z)-endoxifen free base; type: physicochemical
Method: For bulk stability studies, ˜1 g aliquots of (Z)-endoxifen free base were placed inside individually in double LDPE bags tied with a nylon cable tie. The LDPE bags were then placed in aluminum foil bags and thermally sealed. The samples for stability were placed in tightly capped, 180 mL HDPE bottles under inert conditions (dry nitrogen) at 5° C. and 25° C./60% RH for 12 months, and at 40° C./75% RH for 3 months. The samples were tested for (E)-endoxifen and (Z)-endoxifen concentrations and impurities, moisture or water content by Karl Fischer titration, aerobic bacterial colony forming units and appearance at time points day 0, 10 days, 1 m and 3 m. Table 13 below provides bulk drug stability data at 9 m on endoxifen free base at varying storage conditions.

[3] = 2.8 mg/mL in 70% EtOH, 25° C., 2 days
[4] = 2.8 mg/mL in 70% EtOH, 25° C., 7 days
[5] = 2.8 mg/mL in 70% EtOH, 25° C., 10 days
[6] = 2.8 mg/mL in 70% EtOH, 40° C., 2 days
[7] = 2.8 mg/mL in 70% EtOH, 40° C., 7 days
[8] = 2.8 mg/mL in 70% EtOH, 40° C., 10 days
[9] = 10 mg/mL in 99.5% EtOH, 25° C., 2 days
[10] = 10 mg/mL in 99.5% EtOH, 25° C., 7 days
[11] = 10 mg/mL in 99.5% EtOH, 25° C., 10 days
[12] = 10 mg/mL in 99.5% EtOH, 40° C., 2 days
[13] = 10 mg/mL in 99.5% EtOH, 40° C., 7 days
[14] = 10 mg/mL in 99.5% EtOH, 40° C., 10 days

SMILES: CC/C(=C(\c1ccc(O)cc1)c1ccc(OCCNC)cc1)c1ccccc1 [(Z)-Endoxifen, (Z)-4-(1-(4-(2-(methylamino)ethoxy)phenyl)-2-phenylbut-1-enyl) phenol]
- (E)-endoxifen content [1, 3]: (2.09%/
- (Z)-endoxifen content [1, 3]: 96.59%)
- E/Z ratio [1, 3]: 1/46
- Total Impurity [1, 3]: 1.33%
- (E)-endoxifen content [1, 4]: (5.62%
- (Z)-endoxifen content [1, 4]: 92.67%)
- E/Z ratio [1, 4]: 1/17
- Total Impurity [1, 4]: 1.71%
- (E)-endoxifen content [1, 5]: (10.46%/
- (Z)-endoxifen content [1, 5]: 88.20%)
- Total Impurity [1, 5]: 1.34%
- (E)-endoxifen content [1, 6]: (4.43%/
- (Z)-endoxifen content [1, 6]: 94.23%)
- E/Z ratio [1, 6]: 1/21
- Total Impurity [1, 6]: 1.34%
- (E)-endoxifen content [1, 7]: (15.23%/
- (Z)-endoxifen content [1, 7]: 83.04%)
- Total Impurity [1, 7]: 1.73%
- (E)-endoxifen content [1, 8]: (22.59%/
- (Z)-endoxifen content [1, 8]: 76.09%)
- Total Impurity [1, 8]: 1.32%
- (E)-endoxifen content [1, 9]: (1.37%/
- (Z)-endoxifen content [1, 9]: 97.33%)
- E/Z ratio [1, 9]: 1/71
- Total Impurity [1, 9]: 1.3%
- (E)-endoxifen content [1, 10]: (1.91%/
- (Z)-endoxifen content [1, 10]: 96.37%)
- E/Z ratio [1, 10]: 1/50
- Total Impurity [1, 10]: 1.72%
- (E)-endoxifen content [1, 11]: (2.58%/
- (Z)-endoxifen content [1, 11]: 96.03%)
- E/Z ratio [1, 11]: 1/37
- Total Impurity [1, 11]: 1.39%
- (E)-endoxifen content [1, 12]: (1.70%/
- (Z)-endoxifen content [1, 12]: 96.98%)
- E/Z ratio [1, 12]: 1/57
- Total Impurity [1, 12]: 1.32%
- (E)-endoxifen content [1, 13]: (2.82%/
- (Z)-endoxifen content [1, 13]: 95.45%)
- E/Z ratio [1, 13]: 1/34
- Total Impurity [1, 13]: 1/73%
- (E)-endoxifen content [1, 14]: (3.56%/
- (Z)-endoxifen content [1, 14]: 95.10%)
- E/Z ratio [1, 14]: 1/27
- Total Impurity [1, 14]: 1.34%
- stability in alcoholic solutions ([1]; ethanol, elevated temperatures (40° C.), higher concentrations, over 10 days): surprisingly stable
- time for which stable ([2]; 40° C./75% RH): at least 3 months
- (Z)-endoxifen USP <921≥ Plate Count ([2]; Storage 5° C.): 13990 cfu g/mL
- (E)-endoxifen content ([2]; Storage 5° C., 0 m): 0.19%
- (Z)-endoxifen % Purity ([2]; Storage 5° C., 0 m): 99.5%
- Max Indiv. Impurity ([2]; Storage 5° C., 0 m): 0.11%
- Water content (Karl Fischer) ([2]; Storage 5° C., 0 m): 0.06%
- (E)-endoxifen content ([2]; Storage 5° C., 3 m): 0.17%
- (Z)-endoxifen % Purity ([2]; Storage 5° C., 3 m): 99.6%
- Max Indiv. Impurity ([2]; Storage 5° C., 3 m): 0.10%
- Water content (Karl Fischer) ([2]; Storage 5° C., 3 m): 0.05%
- (E)-endoxifen content ([2]; Storage 5° C., 6 m): 0.18%
- (Z)-endoxifen % Purity ([2]; Storage 5° C., 6 m): 99.5%
- Max Indiv. Impurity ([2]; Storage 5° C., 6 m): 0.11%
- Water content (Karl Fischer) ([2]; Storage 5° C., 6 m): 0.05%
- (E)-endoxifen content ([2]; Storage 5° C., 9 m): 0.19%
- (Z)-endoxifen % Purity ([2]; Storage 5° C., 9 m): 99.5%
- Max Indiv. Impurity ([2]; Storage 5° C., 9 m): 0.11%
- Water content (Karl Fischer) ([2]; Storage 5° C., 9 m): 0.05%
- (Z)-endoxifen USP <921≥ Plate Count ([2]; Storage 25° C./60% RH): 14030 cfu g/mL
- (E)-endoxifen content ([2]; Storage 25° C./60% RH, 0 m): 0.19%
- (Z)-endoxifen % Purity ([2]; Storage 25° C./60% RH, 0 m): 99.5%
- Max Indiv. Impurity ([2]; Storage 25° C./60% RH, 0 m): 0.11%
- Water content (Karl Fischer) ([2]; Storage 25° C./60% RH, 0 m): 0.06%
- (E)-endoxifen content ([2]; Storage 25° C./60% RH, 3 m): 0.17%
- (Z)-endoxifen % Purity ([2]; Storage 25° C./60% RH, 3 m): 99.6%
- Max Indiv. Impurity ([2]; Storage 25° C./60% RH, 3 m): 0.11%
- Water content (Karl Fischer) ([2]; Storage 25° C./60% RH, 3 m): 0.05%
- (E)-endoxifen content ([2]; Storage 25° C./60% RH, 6 m): 0.18%
- (Z)-endoxifen % Purity ([2]; Storage 25° C./60% RH, 6 m): 99.5%
- Max Indiv. Impurity ([2]; Storage 25° C./60% RH, 6 m): 0.11%
- Water content (Karl Fischer) ([2]; Storage 25° C./60% RH, 6 m): 0.06%
- (E)-endoxifen content ([2]; Storage 25° C./60% RH, 9 m): 0.19%
- (Z)-endoxifen % Purity ([2]; Storage 25° C./60% RH, 9 m): 99.5%
- Max Indiv. Impurity ([2]; Storage 25° C./60% RH, 9 m): 0.11%
- Water content (Karl Fischer) ([2]; Storage 25° C./60% RH, 9 m): 0.07%
- (Z)-endoxifen USP <921≥ Plate Count ([2]; Storage 40° C./75% RH): 13776 cfu g/mL
- (E)-endoxifen content ([2]; Storage 40° C./75% RH, 0 m): 0.19%
- (Z)-endoxifen % Purity ([2]; Storage 40° C./75% RH, 0 m): 99.5%
- Max Indiv. Impurity ([2]; Storage 40° C./75% RH, 0 m): 0.11%
- Water content (Karl Fischer) ([2]; Storage 40° C./75% RH, 0 m): 0.06%
- (E)-endoxifen content ([2]; Storage 40° C./75% RH, 3 m): 0.17%
- (Z)-endoxifen % Purity ([2]; Storage 40° C./75% RH, 3 m): 99.5%
- Max Indiv. Impurity ([2]; Storage 40° C./75% RH, 3 m): 0.11%
- Water content (Karl Fischer) ([2]; Storage 40° C./75% RH, 3 m): 0.07%
- time for which stable ([2]; ambient temperature): at least 9 months
- time for which stable ([2]; solid, 5° C.): at least 9 months
- time for which stable ([2]; solid, 25° C./60% RH): at least 9 months
- aerobic bacterial plate count TAC ([2]; storage conditions studied): less than 20,000 cfu g/mL
- water content ([2]; storage conditions studied): not more than 1%
